From patent US20070213359A1 (ACADIA Pharmaceuticals Inc., priority 2005, published 2007) come the findings set out here.

Like-named read-outs stand apart in the source and are kept apart here.

One experiment has as its target T1, GHSR1a receptor (Homo sapiens, UniProt Q92847).
T1 construct: expressed in transfected cells; host or cells: HEK293 (membranes)
Nature of the experiment: 125I-Ghrelin binding assay. Here is the method:
Plasmid DNA containing the GHSR1a receptor (12.5 ug/dish) in 0.675 ml DMEM was transfected into the cells by mixing with 180 ul PolyFect, 15 min later mixing in 2.25 ml 10% CS/DMEM, and transferring the mixture into the dish. At 16-18 h post transfection, medium was replaced with 25 ml fresh 10% FCS/1% PSG/DMEM to each dish for another 18-20 h. At approximately 48 hours post-transfection, cells were harvested in ice-cold membrane buffer (20 mM HEPES, 6 mM MgCl2, 1 mM EDTA, pH to 7.2) using a cell scraper, and pelleted by centrifugation.
Pelleted cells were added to a nitrogen cavitation chamber and 900 bar of pressure applied for 30 min. The pressure was slowly released the cavitated cells collected in 50 ml falcon tubes. The tubes were centrifuged at 1000 rpm, 4° C. for 10 min, and the supernatant collected. This centrifugation and collection was repeated two more times until the supernatant was free of precipitate (membranes are still in suspension). The supernatant was poured into a 50 ml centrifuge tube and centrifuged at 10.000 rpm, 4° C. for 20 min. The supernatant was discarded and the pellet re-suspended in 750 μl membrane binding buffer using a chilled 1 ml syringe with 25G5/8 needle to re-suspend membranes. The protein concentration was determined using the BioRad Protein Assay Dye Reagent according to the manufacturers instructions. The protein concentration was adjusted to 5 mg/ml and aliquots snap-frozed and stored at −80 C until use.
Membranes were thawed rapidly; diluted with binding buffer (25 mM Hepes+5 mM MgCl2, 1 mM CaCl2, 2.5 mM EDTA and 0.2% BSA) to a protein concentration of 0.8 ug/30 ul and placed on ice. 96-well plates (U-bottom wells) were prepared with serial dilutions (8 doses, 40 ul/w) of the test compounds. Membranes (30 uL/well) were then added, and incubated with test ligands for 30 min at room temperature with shaking. […] Binding was terminated by filtration through GF/B filters (presoaked with 0.1% polyethylenimine) with a Brandel 96-well harvester. The filters were washed with ice-cold binding buffer (150 ml/plate) and allowed to air-dry for 30 min. 50 ul MicroScient-20 cocktail was added to each dried well, the plates were sealed, and counted for 2 min/well using a TopCount scintillation counter (Packard).

A further experiment has as its target Ghrelin receptor (Homo sapiens, UniProt Q92847). Nature of the experiment: Receptor Selection and Amplification Technology (R-SAT) assay. The format is cell-based. On the set-up: expressed in transfected cells; host or cells: NIH3T3. The note with it: for Emax: read-out: RSAT Eff(%).
[1] abbreviates: Binding pKi, displacement of 125I-ghrelin (0.053 nM), membranes of HEK293 cells transfected with GHSR1a, Cheng-Prussoff, '—' not defined.
The mark [2] stands for this setting: […], '—' not defined (nd used separately), read-out: RSAT pIC50 (converted).
The mark [3] stands for this setting: displacement of 125I-ghrelin (0.053 nM), membranes of HEK293 cells transfected with GHSR1a, Cheng-Prussoff, '—' not defined, read-out: Binding pKi (converted).

T1 sequence (Q92847 whole entry): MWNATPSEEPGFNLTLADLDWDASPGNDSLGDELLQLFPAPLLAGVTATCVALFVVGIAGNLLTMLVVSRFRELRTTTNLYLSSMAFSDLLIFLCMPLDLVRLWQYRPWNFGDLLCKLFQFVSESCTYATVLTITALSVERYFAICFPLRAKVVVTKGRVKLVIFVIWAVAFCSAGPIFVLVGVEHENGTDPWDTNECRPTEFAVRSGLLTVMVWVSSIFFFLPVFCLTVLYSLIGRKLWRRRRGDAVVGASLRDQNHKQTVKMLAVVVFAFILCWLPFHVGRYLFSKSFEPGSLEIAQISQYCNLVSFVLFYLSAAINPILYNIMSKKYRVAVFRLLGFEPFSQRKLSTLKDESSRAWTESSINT
Chain of Ghrelin receptor (Q92847 whole entry): as above

`COc1cccc2c(C(=O)NCc3cccc(C)c3)cn(CCCN3C4CCC3CC(Oc3ccc(Cl)cc3)C4)c12` (stereo not drawn): on GHSR1a receptor (setting [1]), the Ki was 50.1 nM. The IC50 at Ghrelin receptor (setting [2]) is 0.631 nM. The Emax on Ghrelin receptor came to 92%.
Molecule `COc1cccc2c(C(=O)C3CC3)cn(CCCN3CCCN(Cc4ccccc4Cl)CC3)c12` showed a Ki on GHSR1a receptor (setting [1]) of 7.94 nM. At Ghrelin receptor (setting [2]), the IC50 was 0.794 nM. In addition, the Emax at Ghrelin receptor came to 99%.
Take `COc1cccc2c(C(=O)NCc3cccc(Cl)c3)cn(CCCN3C4CCC3CC(CCc3ccccc3)C4)c12` (stereo not drawn): the Ki at GHSR1a receptor (setting [1]) was 7.94 nM. The IC50 at Ghrelin receptor (setting [2]) is 1 nM. At Ghrelin receptor, the Emax is 115%.
At GHSR1a receptor (setting [1]), `COc1cccc2c(C(=O)C3CC3)cn(CCCN3CCCN(Cc4ccc(F)cc4)CC3)c12` gave a Ki of 7.94 nM. Further, on Ghrelin receptor (setting [2]), the IC50 was 1.26 nM. Besides, the Emax at Ghrelin receptor turned out to be 92%.
For the molecule `COc1cccc2c(C(=O)NCc3cccc(C)c3)cn(CCCN3C4CCC3CC(CC(=O)c3ccccc3)C4)c12` (stereo not drawn), at GHSR1a receptor (setting [1]), the Ki is 2 nM. Further, on Ghrelin receptor (setting [2]), the IC50 was 1.58 nM. Moreover, on Ghrelin receptor, the Emax turned out to be 106%.
On GHSR1a receptor (Binding pKi), `CCCCC1CCN(CCCn2cc(C(=O)NCc3cccc(Cl)c3)c3cccc(OC)c32)CC1` had a Ki of 50.1 nM. The IC50 against Ghrelin receptor (RSAT pIC50) is 3.98 nM. The Emax on Ghrelin receptor amounted to 94%.
`CCCCC1CCN(CCCn2cc(C(=O)C3CC3)c3cccc(OC)c32)CC1` showed a Ki on GHSR1a receptor (setting [1]) of 398 nM. Also, the IC50 on Ghrelin receptor (setting [2]) is 3.98 nM. Besides, the Emax at Ghrelin receptor worked out at 95%.
`CCCCC1CCN(CCCn2cc(C(=O)c3ccccc3)c3cccc(OC)c32)CC1` showed a Ki at GHSR1a receptor (setting [1]) of 200 nM. The IC50 on Ghrelin receptor (setting [2]) was 5.01 nM. Also, the Emax at Ghrelin receptor came out at 98%.
As to `CC(=O)c1cn(CCCN2CCC(c3nc4ccccc4s3)CC2)c2c(Cl)cccc12`, at GHSR1a receptor (setting [1]), the Ki was 398 nM. Moreover, on Ghrelin receptor (setting [2]), the IC50 was 5.01 nM. Also, the Emax on Ghrelin receptor turned out to be 117%.
The matching figures for `COc1ccccc1C1CCN(CCCn2cc(C(=O)C3CC3)c3cccc(OC)c32)CC1`: 158 nM, 5.01 nM and 102%.
Molecule `COc1cccc2c(C(=O)NCC(C)C)cn(CCCN3C4CCC3CC(CC(=O)c3ccccc3)C4)c12` (stereo not drawn) had a Ki at GHSR1a receptor (setting [1]) of 50.1 nM. Besides, the IC50 at Ghrelin receptor (setting [2]) was 7.94 nM. Moreover, the Emax at Ghrelin receptor came to 145%.
The matching figures for `COc1cccc2c(C(=O)NCc3cccc(C)c3)cn(CCCN3CCC(Oc4ccc(Cl)cc4)CC3)c12`: 126 nM, 7.94 nM and 115%.
`COc1cccc2c(C(=O)C3CC3)cn(CCCN3C4CCC3CC(CC(=O)c3ccc(Cl)cc3)C4)c12` (stereo not drawn) showed a Ki at GHSR1a receptor (setting [1]) of 39.8 nM. Besides, at Ghrelin receptor (setting [2]), the IC50 is 7.94 nM. On Ghrelin receptor, the Emax was 70%.
The matching figures for `CC(=O)c1cn(CCCN2C3CCC2CC(CC(=O)c2ccccc2)C3)c2c(Br)cccc12` (stereo not drawn): 100 nM, 7.94 nM and 111%.
Molecule `COc1cccc2c(C(=O)NCc3cccc(C)c3)cn(CCCN3C4CCC3CC(CC(=O)c3ccc(Cl)cc3)C4)c12` (stereo not drawn) had a Ki on GHSR1a receptor (setting [1]) of 15.8 nM. At Ghrelin receptor (setting [2]), the IC50 was 10 nM. The Emax at Ghrelin receptor is 110%.
On GHSR1a receptor (setting [1]), `COc1cccc2c(C(=O)NCc3cccc(C)c3)cn(CCCN3CCC(Oc4ccccc4Cl)CC3)c12` gave a Ki of 79.4 nM. Moreover, at Ghrelin receptor (setting [2]), the IC50 was 12.6 nM. Besides, at Ghrelin receptor, the Emax turned out to be 96%.
In the case of `COc1cccc2c(C(=O)NCc3cccc(C)c3)cn(CCCN3CCCN(CCc4ccccc4)CC3)c12`, the Ki on GHSR1a receptor (setting [1]) is 15.8 nM. Moreover, at Ghrelin receptor (setting [2]), the IC50 is 12.6 nM. Also, the Emax on Ghrelin receptor came to 110%.
The matching figures for `COc1cccc2c(C(=O)NCc3cccc(C)c3)cn(CCCN3CCCN(Cc4ccccc4Cl)CC3)c12`: 79.4 nM, 15.8 nM and 119%.
The matching figures for `COc1cccc2c(C(=O)NCc3cccc(C)c3)cn(CCCN3CCCN(Cc4ccc(F)cc4)CC3)c12`: 100 nM, 15.8 nM and 129%.
`COc1cccc2c(C(C)=O)cn(CCCN3CCC(N(C4CC4)S(=O)(=O)c4ccccc4)CC3)c12` showed a Ki at GHSR1a receptor (setting [1]) of 2510 nM. The IC50 on Ghrelin receptor (setting [2]) was 15.8 nM. On Ghrelin receptor, the Emax is 105%.
Turning to `COc1cccc2c(C(=O)c3ccccc3)cn(CCCN3CCCN(CCc4ccccc4)CC3)c12`, on GHSR1a receptor (setting [1]), the Ki is 25.1 nM. Also, the IC50 at Ghrelin receptor (setting [2]) is 15.8 nM. For the same molecule, the Emax at Ghrelin receptor is 124%.
The matching figures for `COc1cccc2c(C(=O)NCc3cccc(Cl)c3)cn(CCCN3CCCN(CCc4ccccc4)CC3)c12`: 158 nM, 20 nM and 125%.
The matching figures for `COc1cccc2c(C(=O)C3CC3)cn(CCCN3CCN(CCOc4ccc(Cl)cc4)CC3)c12`: 126 nM, 20 nM and 122%.
`COc1cccc2c(C(=O)NCc3cccc(C)c3)cn(CCCN3CCN(CCOc4ccccc4)CC3)c12` showed a Ki on GHSR1a receptor (setting [1]) of 7.94 nM. On Ghrelin receptor (setting [2]), the IC50 is 20 nM. The Emax on Ghrelin receptor is 89%.
The matching figures for `COc1cccc2c(C(=O)NCC(C)C)cn(CCCN3CCCN(Cc4ccc(F)cc4)CC3)c12`: 100 nM, 25.1 nM and 118%.
At GHSR1a receptor (setting [1]), `COc1cccc2c(C(=O)NCc3cccc(C)c3)cn(CCCN3CCN(Cc4ccc(Cl)cc4Cl)CC3)c12` gave a Ki of 1000 nM. Besides, at Ghrelin receptor (setting [2]), the IC50 is 25.1 nM. Moreover, at Ghrelin receptor, the Emax stood at 110%.
`COc1cccc2c(C(=O)Cc3ccccc3)cn(CCCN3CCC(CCOc4ccc(Cl)cc4)CC3)c12`: the Ki at GHSR1a receptor (setting [1]) was 251 nM. In addition, the IC50 on Ghrelin receptor (setting [2]) is 25.1 nM. Moreover, at Ghrelin receptor, the Emax came to 121%.
In the case of `CCCCCC1CC2CCC(C1)N2CCCn1cc(C(C)=O)c2ccccc21` (stereo not drawn), the Ki on GHSR1a receptor (setting [1]) was 1580 nM. Moreover, the IC50 on Ghrelin receptor (setting [2]) is 31.6 nM. In addition, the Emax on Ghrelin receptor came to 104%.
The matching figures for `COc1cccc2c(C(=O)NCc3cccc(Cl)c3)cn(CCCN3C4CCC3CC(Oc3ccc(F)cc3)C4)c12` (stereo not drawn): 158 nM, 39.8 nM and 152%.
As to `COc1ccc2[nH]c3c(c2c1)CCN(CCCn1cc(C(C)=O)c2cccc(OC)c21)C3`, the Ki at GHSR1a receptor (setting [1]) is 1000 nM. In addition, on Ghrelin receptor (setting [2]), the IC50 is 50.1 nM. Moreover, the Emax at Ghrelin receptor (percent inhibition at saturating ligand, normalized to reference ligand Substance P analog = 100%) amounted to 123%.
With `COc1cccc2c(C(C)=O)cn(CCCN3C4CCC3CC(OCC3CC3)C4)c12` (stereo not drawn), at GHSR1a receptor (setting [1]), the Ki was 1580 nM. On Ghrelin receptor (setting [2]), the IC50 is 50.1 nM. The Emax at Ghrelin receptor turned out to be 113%.
With `COc1cccc2c(C(=O)C3CC3)cn(CCCN3CCC(Oc4ccccc4Cl)CC3)c12`, the Ki at GHSR1a receptor (setting [1]) was 3160 nM. Also, the IC50 on Ghrelin receptor (setting [2]) was 50.1 nM. For the same molecule, the Emax at Ghrelin receptor came to 102%.
For the molecule `COc1cccc2c(C(=O)NCc3cccc(Cl)c3)cn(CCCN3CCC(Oc4ccc(Cl)cc4)CC3)c12`, the Ki on GHSR1a receptor (setting [1]) was 631 nM. For the same molecule, on Ghrelin receptor (setting [2]), the IC50 is 50.1 nM. At Ghrelin receptor, the Emax turned out to be 123%.
The matching figures for `CCCCC[C@H]1C[C@H]2CC[C@@H](C1)N2CCCn1cc(C(=O)NCc2cccc(Cl)c2)c2cccc(OC)c21`: 200 nM, 50.1 nM and 123%.
At GHSR1a receptor (setting [1]), `COc1cccc2c(C(=O)NCc3cccc(Cl)c3)cn(CCCN3[C@@H]4CC[C@H]3C[C@@H](CC(=O)c3ccccc3)C4)c12` showed a Ki of 63.1 nM. Besides, at Ghrelin receptor (setting [2]), the IC50 was 50.1 nM. On Ghrelin receptor, the Emax amounted to 111%.
In the case of `COc1cccc2c(C(=O)NCc3cccc(Cl)c3)cn(CCCN3CCN(CCOc4ccccc4)CC3)c12`, the Ki at GHSR1a receptor (setting [1]) was 6.31 nM. In addition, on Ghrelin receptor (setting [2]), the IC50 was 79.4 nM. Also, on Ghrelin receptor, the Emax came out at 101%.
For `CC(=O)c1c(C)n(CCCN2C3CCC2CC(CCc2ccccc2)C3)c2c(Br)cccc12` (stereo not drawn), the Ki on GHSR1a receptor (setting [3]) is 200 nM.
With `O=C(c1cn(CCCN2C3CCC2CC(CCc2ccc(Cl)cc2)C3)c2ncccc12)C(F)(F)F` (stereo not drawn), at GHSR1a receptor (setting [3]), the Ki is 251 nM.
As to `CCc1cccc2c(C(C)=O)cn(CCCN3C4CCC3CC(CC(=O)c3ccc(Cl)cc3)C4)c12` (stereo not drawn), the Ki on GHSR1a receptor (setting [3]) was 501 nM.
For `CC(=O)c1c(C)n(CCCN2CCC(CCOc3ccc(Cl)cc3)CC2)c2c(Br)cccc12`, the Ki on GHSR1a receptor (setting [3]) was 631 nM.
In turn, `COc1cccc2c(C(=O)NCC(C)C)cn(CCCN3CCC(c4nc5ccccc5s4)CC3)c12` [drawing 706] gave a Ki on GHSR1a receptor (setting [1]) of 501 nM.
In the case of `CCCOC1CCN(CCCn2cc(C(C)=O)c3cccc(OC)c32)CC1` [drawing 713], the Ki on GHSR1a receptor (setting [3]) is 1260 nM.
